# According to patent US4291042A, “Antidepressant piperidine derivatives” (John Wyeth & Brother Limited, priority 1979, dated 1981):
# Legend:
# [1] = tested on: uptake of 5-hydroxytryptamine; assay: inhibition of 5-hydroxytryptamine uptake in brain slices; assay type: biochemical, rat; parameters: key: Compounds not achieving 50% inhibition are considered inactive; conditions: for inhibition of 5-HT (hydroxytryptamine) uptake (in words): rat brain slices; for Potency Ratio (imipramine = 1.0) 5-hydroxytryptamine: rat cerebral cortex slices, H^3 5-hydroxytryptamine
# Description: (§1) The compounds of formula I were tested for the ability to inhibit noradrenaline and 5-hydroxytryptamine uptake in brain slices in the following standard test:
# The effects of test compounds on the neuronal uptake of noradrenaline into slices of cerebral cortex prepared from rat brain is determined according to the method described by Snyder, Green and Hendley, Kinetics of H^3 --norepinephrine accumulation into slices from different regions of the rat brain (J.Pharm. exp. Therap. 164: 90-102) (1968). The effects of test compounds on the uptake of 5-hydroxytryptamine is obtained in a similar manner except that H^3 5-hydroxytryptamine is used in place of H^3 noradrenaline. Concentration-response curves are obtained both for the test compound and for the standard agent, imipramine. The potency of each test compound is expressed in proportion to that of imipramine. Thus, [formula]
# [2] = tested on: neuronal uptake of noradrenaline into slices of cerebral cortex; assay: inhibition of noradrenaline uptake in brain slices; assay type: biochemical, rat; conditions: for inhibition of noradrenaline uptake (in words): rat brain slices; for Potency Ratio (imipramine = 1.0) Noradrenaline: rat cerebral cortex slices, H^3 noradrenaline
# Description: as §1
# Concentration-response curves are obtained both for the test compound and for the standard agent, imipramine. The potency of each test compound is expressed in proportion to that of imipramine. Thus, [formula]
# [3] = tested on: p-chloroamphetamine induced hyperactivity; assay: inhibition of p-chloroamphetamine (pCA) induced hyperactivity; assay type: in vivo; conditions: female mice; 50 mg/kg po; 20 mg/kg pCA ip 30 min later; activity 10-30 min post pCA
# Description: Compounds of formula I were also tested for their ability to inhibit p-chloroamphetamine induced hyperactivity. The following procedure was used:
# Three groups of 4 female mice (20-24 g) received the test compounds (50 mg/kg po) and a fourth group the requisite volume of vehicle. Thirty minutes later all the animals are given 20 mg/kg p-chloroamphetamine (pCA) ip. The grouped mice are placed immediately in square plastic cages in activity monitors and their motor activity recorded over the period 10-30 minutes post pCA. This procedure is repeated three more times so that four groups of mice are used per treatment and each activity monitor is used with all treatments in turn. The inhibition of pCA induced hyperactivity is calculated thus: [formula] where C=mean activity of control groups 10-30 minutes post pCA.
# T=mean activity of treated groups 10-30 minutes post pCA.
# This test is used as an in vivo screen for detection of 5-hydroxytryptamineuptake inhibitors.
# Compounds giving >50% inhibition are considered of special interest. In such a test the following compounds were particularly active: […]
structure (smiles),measurement,setting,value
"O=C1c2ccccc2C(=O)N1C1CCN(Cc2ccccc2)CC1 [B, 2-(1-benzylpiperid-4-yl)-1H-isoindol-1,3-(2H)-dione, reference compound]",inhibition of 5-HT (hydroxytryptamine) uptake (in words),[1],inactive
same,Potency Ratio (imipramine = 1.0) 5-hydroxytryptamine,[1],inactive
same,inhibition of noradrenaline uptake (in words),[2],inactive
same,Potency Ratio (imipramine = 1.0) Noradrenaline,[2],inactive
"O=C1c2ccccc2S(=O)(=O)N1C1CCN(Cc2c[nH]c3ccccc23)CC1 [Example 3, 2-(1-[Indol-3-ylmethyl]piperid-4-yl)-1,2-benzisothiazolin-3-one-1,1-dioxide]",% Inhibition of pCA induced hyperactivity,[3],56%
"O=C1c2ccc(Cl)cc2C(=O)N1C1CCN(CCc2c[nH]c3ccccc23)CC1 [Example 8, 5-Chloro-2-(1-[2-(indol-3-yl)ethyl]piperid-4-yl)-1H-isoindole-1,3-(2H)-dione]",% Inhibition of pCA induced hyperactivity,[3],94%
"O=C1c2ccc(Cl)cc2C(=O)N1C1CCN(Cc2c[nH]c3ccccc23)CC1 [Example 16, 5-Chloro-2-[1-(indol-3-ylmethyl)piperid-4-yl]-1H-isoindole-1,3-(2H)-dione]",% Inhibition of pCA induced hyperactivity,[3],63%
"O=C1c2ccccc2C(=O)N1C1CCN(Cc2c[nH]c3ccccc23)CC1 [I, 2-(1-[Indol-3-ylmethyl]piperid-4-yl)-1H-isoindole-1,3-(2H)-dione]",% Inhibition of pCA induced hyperactivity,[3],53%
same,inhibition of 5-HT (hydroxytryptamine) uptake (in words),[1],potent inhibitors
same,Potency Ratio (imipramine = 1.0) 5-hydroxytryptamine,[1],9.5
same,inhibition of noradrenaline uptake (in words),[2],very weak inhibitors
same,Potency Ratio (imipramine = 1.0) Noradrenaline,[2],0.01
"O=C1c2ccccc2C(=O)N1C1CCN(CCc2c[nH]c3ccccc23)CC1 [II, 2-(1-[2-(Indol-3-yl)ethyl]piperid-4-yl)-1H-isoindol-1,3-(2H)-dione]",inhibition of 5-HT (hydroxytryptamine) uptake (in words),[1],potent inhibitors
same,Potency Ratio (imipramine = 1.0) 5-hydroxytryptamine,[1],8.3
same,inhibition of noradrenaline uptake (in words),[2],very weak inhibitors
same,Potency Ratio (imipramine = 1.0) Noradrenaline,[2],0.06
"Nc1ccc2c(c1)C(=O)N(C1CCN(CCc3c[nH]c4ccccc34)CC1)C2=O [III, 5-amino-2-(1-[2-(indol-3-yl)ethyl]piperid-4-yl)-1H-isoindole-1,3-(2H)-dione]",inhibition of 5-HT (hydroxytryptamine) uptake (in words),[1],potent inhibitors
same,Potency Ratio (imipramine = 1.0) 5-hydroxytryptamine,[1],11.0
same,inhibition of noradrenaline uptake (in words),[2],very weak inhibitors
same,Potency Ratio (imipramine = 1.0) Noradrenaline,[2],inactive
